Source: ChEMBL document CHEMBL1201862, “PubChem BioAssay data set” (2004)
Active and inactive are the calls of the source.

Assays:
Streptokinase A = target: T1, Streptokinase A (Streptococcus pyogenes serotype M1, UniProt P10520); assay: viability-normalized secreted streptokinase activity reduction – plasminogen activation absorbance, OD405, dose response (AID 1914); format: functional, Streptococcus pyogenes M1 GAS;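 note: secreted streptokinase activity via plasminogen activation per viability signal from cell pellet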
T1 sequence (P10520 whole entry): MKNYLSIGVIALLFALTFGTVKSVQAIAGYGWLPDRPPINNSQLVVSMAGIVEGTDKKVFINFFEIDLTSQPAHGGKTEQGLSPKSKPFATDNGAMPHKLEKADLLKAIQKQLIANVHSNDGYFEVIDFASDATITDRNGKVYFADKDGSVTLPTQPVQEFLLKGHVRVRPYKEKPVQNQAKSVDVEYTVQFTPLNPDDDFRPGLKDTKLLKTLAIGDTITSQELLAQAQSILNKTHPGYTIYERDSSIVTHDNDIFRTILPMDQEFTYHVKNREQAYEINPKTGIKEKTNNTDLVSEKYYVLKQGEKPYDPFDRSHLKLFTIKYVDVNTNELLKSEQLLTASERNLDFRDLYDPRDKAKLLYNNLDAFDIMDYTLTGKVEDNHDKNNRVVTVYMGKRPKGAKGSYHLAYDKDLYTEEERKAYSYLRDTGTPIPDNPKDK

[1] = test system: Streptococcus sp. 'group A'; assay: Streptococcus pyogenes SK(-)GAS viability under kanamycin – luminescence, BacTiterGlo, confirmation, counter-screen for streptokinase expression inhibitor project, dose response (AID 1900); format: functional, organism-based
[2] = target: T2, Short transient receptor potential channel 4 (Mus musculus, UniProt Q9QUQ5); assay: calcium entry via TRPC4 opening agents – cell-based, HEK293 TRPC4/mu-opioid, Fluo-4 calcium, dose response (AID 434937); format: functional
T2 sequence (Q9QUQ5 whole entry): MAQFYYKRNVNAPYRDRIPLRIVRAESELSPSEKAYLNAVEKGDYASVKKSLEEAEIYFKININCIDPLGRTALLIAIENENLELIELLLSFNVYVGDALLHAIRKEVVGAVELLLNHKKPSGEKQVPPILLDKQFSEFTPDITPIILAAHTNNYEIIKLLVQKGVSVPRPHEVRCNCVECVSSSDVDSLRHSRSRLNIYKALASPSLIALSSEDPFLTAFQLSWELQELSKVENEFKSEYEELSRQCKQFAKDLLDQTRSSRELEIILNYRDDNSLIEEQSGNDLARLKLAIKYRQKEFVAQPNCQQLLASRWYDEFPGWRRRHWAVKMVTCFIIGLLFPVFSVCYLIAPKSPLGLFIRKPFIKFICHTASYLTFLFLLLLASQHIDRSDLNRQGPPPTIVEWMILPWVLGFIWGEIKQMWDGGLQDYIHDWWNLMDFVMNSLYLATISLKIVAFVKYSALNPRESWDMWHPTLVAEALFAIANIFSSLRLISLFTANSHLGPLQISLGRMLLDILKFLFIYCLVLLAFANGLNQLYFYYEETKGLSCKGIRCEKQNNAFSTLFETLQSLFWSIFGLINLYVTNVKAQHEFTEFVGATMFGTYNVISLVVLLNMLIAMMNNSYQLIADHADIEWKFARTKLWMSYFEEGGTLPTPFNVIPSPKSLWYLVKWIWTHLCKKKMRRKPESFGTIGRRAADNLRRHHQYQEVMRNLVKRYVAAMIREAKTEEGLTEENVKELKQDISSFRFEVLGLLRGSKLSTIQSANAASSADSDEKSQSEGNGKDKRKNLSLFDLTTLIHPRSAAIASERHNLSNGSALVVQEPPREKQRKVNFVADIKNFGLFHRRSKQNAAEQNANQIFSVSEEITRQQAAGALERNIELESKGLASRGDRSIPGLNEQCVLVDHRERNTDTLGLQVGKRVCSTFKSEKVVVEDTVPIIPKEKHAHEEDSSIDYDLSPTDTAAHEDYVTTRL

Streptococcus = assay: GAS UMAA2166 growth inhibition – luminescence, BacTiterGlo, counter-screen for streptokinase expression inhibitor project, dose response (AID 1915); format: functional, organism-based;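 note: potency for reduction of bacterial viability or growth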
[3] = MIN6 cell viability loss – mouse insulinoma, cytotoxicity control, dose response (AID 2122); format: functional;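 note: confirmatory high-throughput counterscreen run to flag cytotoxic compounds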
[4] = decrease of insulin promoter-GFP reporter – imaging, high-content screening, mouse beta cells (AID 1628); format: functional; details: MIN6
Aminopeptidase N = target: T3, Aminopeptidase N (Plasmodium falciparum FcB1/Columbia, UniProt O96935); assay: malaria alanyl aminopeptidase activity blockers – biochemical, fluorogenic H-Leu-NHMec substrate, 1536-well (AID 1445); parameters: species or system Plasmodium falciparum 3D7, 3D7
T3 sequence (O96935 whole entry): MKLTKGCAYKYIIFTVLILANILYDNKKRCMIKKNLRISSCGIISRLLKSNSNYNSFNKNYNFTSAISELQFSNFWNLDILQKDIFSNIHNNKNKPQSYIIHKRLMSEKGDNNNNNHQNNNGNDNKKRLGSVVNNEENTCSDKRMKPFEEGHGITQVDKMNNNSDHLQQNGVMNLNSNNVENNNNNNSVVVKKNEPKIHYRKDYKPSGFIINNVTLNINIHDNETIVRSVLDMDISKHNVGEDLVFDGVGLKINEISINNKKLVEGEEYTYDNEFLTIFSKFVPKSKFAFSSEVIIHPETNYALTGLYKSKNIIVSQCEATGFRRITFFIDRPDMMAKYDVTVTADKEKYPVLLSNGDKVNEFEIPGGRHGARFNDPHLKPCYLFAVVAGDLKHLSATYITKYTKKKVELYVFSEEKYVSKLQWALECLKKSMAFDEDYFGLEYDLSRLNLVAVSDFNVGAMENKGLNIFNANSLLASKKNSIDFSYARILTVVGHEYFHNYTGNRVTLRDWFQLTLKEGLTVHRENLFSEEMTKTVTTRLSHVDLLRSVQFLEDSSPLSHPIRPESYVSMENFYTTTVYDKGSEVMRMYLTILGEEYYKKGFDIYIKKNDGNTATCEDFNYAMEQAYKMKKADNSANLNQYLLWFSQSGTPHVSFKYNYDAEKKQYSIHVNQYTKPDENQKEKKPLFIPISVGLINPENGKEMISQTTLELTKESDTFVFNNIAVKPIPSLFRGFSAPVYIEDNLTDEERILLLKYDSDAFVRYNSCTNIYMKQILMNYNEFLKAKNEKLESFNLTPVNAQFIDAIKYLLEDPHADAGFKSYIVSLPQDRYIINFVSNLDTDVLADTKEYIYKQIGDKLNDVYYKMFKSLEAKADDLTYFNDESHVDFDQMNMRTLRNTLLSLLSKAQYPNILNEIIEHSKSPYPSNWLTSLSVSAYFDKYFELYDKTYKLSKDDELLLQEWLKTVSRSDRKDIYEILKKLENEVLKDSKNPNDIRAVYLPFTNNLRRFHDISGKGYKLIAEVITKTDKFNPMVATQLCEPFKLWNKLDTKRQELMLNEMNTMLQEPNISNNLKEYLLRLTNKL

Coagulation factor XII = target: T4, Coagulation factor XII (Homo sapiens, UniProt P00748); format: functional;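 note: activated factor XIIa alpha cleaving a fluorogenic AMC peptide substrate; inhibitor potency from loss of enzyme activity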
T4 sequence (P00748 whole entry): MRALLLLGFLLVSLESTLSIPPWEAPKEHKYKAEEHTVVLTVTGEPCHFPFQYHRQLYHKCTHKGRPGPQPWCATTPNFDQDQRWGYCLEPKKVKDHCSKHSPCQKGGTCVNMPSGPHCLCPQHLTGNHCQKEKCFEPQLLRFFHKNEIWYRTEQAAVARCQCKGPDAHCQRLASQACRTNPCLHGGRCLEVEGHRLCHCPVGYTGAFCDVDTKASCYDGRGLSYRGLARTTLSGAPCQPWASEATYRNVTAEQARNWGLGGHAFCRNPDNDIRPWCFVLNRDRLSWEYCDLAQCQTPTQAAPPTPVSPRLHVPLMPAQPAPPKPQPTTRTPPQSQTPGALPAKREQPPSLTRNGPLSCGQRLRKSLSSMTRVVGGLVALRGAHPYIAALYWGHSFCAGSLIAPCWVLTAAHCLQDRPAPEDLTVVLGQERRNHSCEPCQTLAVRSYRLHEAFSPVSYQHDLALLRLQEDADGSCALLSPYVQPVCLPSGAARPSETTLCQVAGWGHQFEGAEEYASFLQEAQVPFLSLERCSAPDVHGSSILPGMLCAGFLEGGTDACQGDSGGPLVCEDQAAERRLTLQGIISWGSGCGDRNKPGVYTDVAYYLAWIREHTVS

[5] = target: T5, Zinc finger protein mex-5 (Caenorhabditis elegans, UniProt Q9XUB2); assay: potency of MEX-5 RNA-binding blockers – biochemical, C. elegans, fluorescence polarization, dose response (AID 1960)
T5 sequence (Q9XUB2 whole entry): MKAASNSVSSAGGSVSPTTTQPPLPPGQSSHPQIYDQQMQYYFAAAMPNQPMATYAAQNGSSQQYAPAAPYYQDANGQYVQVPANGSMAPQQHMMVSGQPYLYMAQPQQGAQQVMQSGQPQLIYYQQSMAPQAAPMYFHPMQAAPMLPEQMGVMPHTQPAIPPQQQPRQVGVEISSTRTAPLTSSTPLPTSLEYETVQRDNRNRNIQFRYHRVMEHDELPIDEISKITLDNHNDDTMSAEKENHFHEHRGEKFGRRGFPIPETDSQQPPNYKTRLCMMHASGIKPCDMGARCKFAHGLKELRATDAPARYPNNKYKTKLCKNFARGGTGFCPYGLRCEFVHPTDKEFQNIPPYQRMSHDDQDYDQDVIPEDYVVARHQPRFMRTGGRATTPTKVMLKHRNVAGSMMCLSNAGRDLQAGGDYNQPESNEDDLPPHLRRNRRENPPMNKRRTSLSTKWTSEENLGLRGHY

[6] = target: T6, RNA-binding protein pos-1 (Caenorhabditis elegans, UniProt G5EF15); assay: disruptors of C. elegans POS-1 RNA interaction – biochemical, fluorescence polarization, dose response (AID 1964);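 note: purified POS-1 fused to maltose binding protein made in E. coli; potency of compounds blocking POS-1 binding to fluorescent RNA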
T6 sequence (G5EF15 whole entry): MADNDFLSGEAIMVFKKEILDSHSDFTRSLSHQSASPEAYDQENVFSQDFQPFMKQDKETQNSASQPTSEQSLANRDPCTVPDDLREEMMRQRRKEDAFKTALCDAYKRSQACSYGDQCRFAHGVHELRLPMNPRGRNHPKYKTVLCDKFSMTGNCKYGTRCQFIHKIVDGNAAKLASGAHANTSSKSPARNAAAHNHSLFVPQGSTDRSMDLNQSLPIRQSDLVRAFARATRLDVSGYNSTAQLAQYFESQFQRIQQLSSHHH

[7] = off-target signal loss in HeLa-CEM21 co-culture – HeLa F-luc CTL cells, cherry-picked, counter-screen for HIV-1 Env fusion inhibitor project, dose response (AID 652040); format: functional, cell-based;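 note: potency for signal decrease marking cytotoxic or nonspecific inhibition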
[8] = blockers of HIV-1 ZM109 envelope-driven cell-cell fusion – HeLa effector, CEM target cells, luciferase, cherry-pick, dose response (AID 652058); format: functional, cell-based;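 note: luciferase signal from HIV-1 Env mediated cell-cell fusion of effector and target cells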
[9] = viability loss in CEM21 cells – cell-based, CellTiter-Glo luminescence, cherry-picked, cytotoxicity control for viral fusion inhibitor project, dose response (AID 652042); format: functional;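 note: potency for signal decrease meaning cytotoxicity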
[10] = blockers of HIV-1 envelope-mediated cell-cell fusion – cherry-pick, dose response (AID 652057); format: functional, cell-based
[11] = HIV-1 AD8 envelope cell-cell fusion blockers – cherry-pick, dose response (AID 652062); format: functional, cell-based;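 note: luciferase signal from cell-cell fusion driven by HIV-1 clade B AD8 Env; potency is for inhibitors of fusion seen as a drop in luminescence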
cells [12] = format: functional, cell-based
cells [13] = format: functional, cell-based; remark: listed apart in the source

In the case of `COc1cc(OC)cc(C(=O)NC(=S)NNC(=O)Cc2cccs2)c1`, the EC50 (Streptokinase A) is reported as > 150 µM (not active), the EC50 [1] is reported as 0.814 µM (active) and the EC50 [2] is reported as 10.6 µM (active). For the same molecule, the EC50 (Streptococcus) was 11.6 µM (active).

For `Cc1cc(O)nc(N/N=C/c2cc(C)n(CC(F)(F)F)c2C)n1`, the IC50 [3] was 11.2 µM (inactive) and the IC50 [4] was 2 µM (active).

With `O=[N+]([O-])c1ccc(N2CCNCC2)c2ncccc12` the EC50 [2] was 0.0373 µM (active).

With `CN(C)C=O.Cc1ccc(-c2cc(-c3nnc(S)o3)c3ccccc3n2)cc1` the IC50 (Aminopeptidase N) was 35.5 µM (active).

With `COC(=O)c1sccc1NC(=O)/C=C/c1c(Cl)cccc1Cl` the IC50 (Coagulation factor XII) was > 50 µM (inactive).

With `O=C(O)c1cc(-c2ccc(/C=N/Nc3ccc([N+](=O)[O-])cn3)o2)ccc1Cl` the IC50 (Aminopeptidase N) was 12.7 µM (active), the EC50 [5] was 6.29 µM (active) and the EC50 [6] was 31 µM (active).

In the case of `CN(C)C(CNC(=O)c1cccc(S(=O)(=O)N(C)C)c1)c1ccccc1` (configuration not stated), the EC50 [2] is reported as 0.299 µM (active).

In the case of `Cc1ccc(S(=O)(=O)N(CC(=O)NCCC2=CCCCC2)Cc2ccccc2)cc1`, the AC50 [7] is reported as 7.25 µM (active), the AC50 [8] is reported as 10.7 µM (active) and the AC50 [9] is reported as 41.1 µM (active). For the same molecule, the AC50 [10] was 5.01 µM (active), the IC50 (Coagulation factor XII) was > 50 µM (inactive) and the AC50 [11] was 10.2 µM (active).

With `Nc1nc2nc(-c3cccs3)cc(C(F)(F)F)n2n1` the IC50 (Aminopeptidase N) was 61.4 µM (active), the EC50 (cells [12]) was > 350 µM (not active) and the EC50 (cells [13]) was > 350 µM (not active).

In the case of `CN(C)c1ccc(C(=O)NN2C(=O)c3ccccc3C2=O)cc1`, the IC50 (Coagulation factor XII) is reported as > 50 µM (inactive).

For `Cc1sc2nc(-c3ccccn3)nc(O)c2c1-c1ccccc1`, the IC50 [3] was 5.43 µM (active), the EC50 [1] was 1.25 µM (active) and the IC50 [4] was 4.11 µM (active). The EC50 (Streptococcus) was 23.9 µM (active).
